According to patent US5834436A, “Membrane-permeant second messengers” (priority 1995, dated 1998):
One block for each compound: values may come before it.

What was measured:
[1] = molecular target: cAMP-dependent kinase type I (FICRhR) (Bos taurus, UniProt P00514); assay: biochemical
Text: When PKA is doubly labeled with fluorescein on its catalytic subunits and rhodamine on its regulatory subunits to produce FICRhR, fluorescence energy transfer from the fluorescein to rhodamine occurs in the holoenzyme complex but is disrupted upon activation and dissociation of the subunits. The change in the ratio of fluorescein to rhodamine emissions parallels the increase in kinase activity and can be nondestructively imaged in single cells. REF-52 fibroblasts were microinjected with FICRhR and emission ratio images recorded at room temperature as previously described (27).

[2] = molecular target: cAMP-dependent protein kinase (PKA) (Bos taurus, UniProt P00514); assay: cell-based; assay type: cell-based
[3] = tested on: angelfish (Pterophyllum scalare) melanophores; assay: Pigment dispersion in angelfish melanophores on isolated scales (FIG. 3); assay type: cell-based; conditions: for reversibility of dispersion (in words): removal of extracellular compound and epinephrine
Protocol: Melanophores permit a visual single-cell assay for the ability of cAMP analogs to enter cells and mimic cAMP actions. The melanophores were isolated on angelfish scales and the epidermis was stripped off. […] Dispersion was just detectable at 1 μM and half-maximal near 10 μM (FIG. 3A). […] The preceding examples are summarized in (64).

T84 cells = assay: cells; assay type: cell-based; conditions: for EC50: Homo sapiens, T84, 0.2 h, ISC 12 min after addition, read-out: EC50 for Cl- secretion
Text: A convenient test system is the intestinal cell line T84, in which chloride secretion can be continuously monitored by mounting confluent monolayers of cells in Ussing chambers (42).

REF-52 fibroblasts = assay: Cytosolic free Ca2+ imaging (fura-2) in single REF-52 fibroblasts (FIG. 6); assay type: cell-based
Protocol: The best-established biological effect of IP3 is to release Ca^2+ from internal stores (26), so IP3 /PM (5a, R=Et, R'=H) was tested by imaging cytosolic free Ca^2+ levels in single REF-52 fibroblasts using standard methodology (58). Cells were loaded with the Ca^2+ -indicator fura-2 and viewed by fluorescence excitation ratioing. IP3 /PM (40 μM) was applied extracellularly while monitoring cytosolic Ca^2+ concentrations.

1321N1 astrocytoma cells = assay: Cytosolic free Ca2+ imaging (fura-2) in 1321N1 astrocytoma cells (FIGS. 7-9); assay type: cell-based
Protocol: Biological tests on 1321N1 astrocytoma cells were performed similarly to the tests on REF-52 cells (71). The concentration of Cytosolic free Ca^2+ (ordinate, in units of […]) in fura-2-loaded 1321N1 astrocytoma cells is shown as a function of time (abscissa, in units of seconds). At the dotted vertical line labeled 1, 20 μM inositol-1,4,5-triphosphate propionyloxymethyl ester (5a, R=Et, R'=H) was added. […] Subsequently the cells could respond to carbachol (200 μM, delivered at the dotted vertical line labeled 2), a drug that stimulates the endogenous generation of inositol-1,4,5-triphosphate. However, the response to carbachol is depressed by the prior treatment with the inositol-1,4,5-triphosphate propionyloxymethyl ester. Likewise the Ca^2+ response to thapsigargin (100 nM, delivered at the dotted vertical line labeled 3), another drug that releases stored Ca^2+, is depressed.
A test similar to the one shown in FIG. 7 was conducted except that the medium lacked extracellular Ca^2+ and a dose of 60 μM inositol-1,4,5-triphosphate propionyloxymethyl ester was added at the dotted vertical line labeled 1. […] Because no extracellular Ca^2+ was present, this response must have represented release from intracellular Ca^2+ stores. […] The much greater degree of inhibition of the carbachol response compared to the previous example (FIG. 7) is due to the higher dose of the inositol-1,4,5-triphosphate propionyloxymethyl ester and the absence of extracellular Ca^2+, which reduces refilling of Ca^2+ stores.
In a further example, the same test as set forth above was conducted with astrocytoma cells, except that 2 μM inositol-1,4,5-triphosphate butyryloxymethyl ester (5a, R=Pr, R'=H) was used instead of the propionyloxymethyl ester.

[4] = 20 μM, extracellular Ca2+ present, FIG. 7
[5] = 60 μM, no extracellular Ca2+, FIG. 8

cAMP-dependent kinase type I (FICRhR), sequence (P00514 whole entry): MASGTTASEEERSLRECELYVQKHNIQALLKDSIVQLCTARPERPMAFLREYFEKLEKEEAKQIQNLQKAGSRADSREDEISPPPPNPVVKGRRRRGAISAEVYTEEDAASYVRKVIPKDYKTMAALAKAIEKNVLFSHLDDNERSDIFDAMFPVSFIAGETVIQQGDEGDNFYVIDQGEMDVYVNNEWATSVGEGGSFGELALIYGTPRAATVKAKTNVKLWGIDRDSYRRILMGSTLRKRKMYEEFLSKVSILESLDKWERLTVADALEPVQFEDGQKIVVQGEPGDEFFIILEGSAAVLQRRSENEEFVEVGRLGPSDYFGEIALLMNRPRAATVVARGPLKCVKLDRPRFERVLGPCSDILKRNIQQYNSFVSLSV

Compound: CCC(=O)OCOP(=O)(OCOC(=O)CC)O[C@@H]1[C@H](O)[C@H](O)[C@@H](OP(=O)(OCOC(=O)CC)OCOC(=O)CC)[C@H](OP(=O)(OCOC(=O)CC)OCOC(=O)CC)[C@H]1O [IP3 /PM, D-myo-inositol-1,4,5-triphosphate propionyloxymethyl ester]
- cytosolic Ca2+ concentration after addition (in words) (REF-52 fibroblasts; 40 μM, extracellular): increased rapidly
- effect of subsequent vasopressin (in words) (REF-52 fibroblasts; after 40 μM IP3/PM): much less effect than normal
- Ca2+ response to thapsigargin (100 nM) after treatment (in words) (1321N1 astrocytoma cells; [4]): depressed
- delay of cytosolic Ca2+ elevation (1321N1 astrocytoma cells; [4]): about 100 second
- elevation of cytosolic Ca2+ (in words) (1321N1 astrocytoma cells; [4]): sizable elevation of cytosolic Ca^2+
- response to carbachol (200 μM) after treatment (in words) (1321N1 astrocytoma cells; [4]): depressed
- delay of cytosolic Ca2+ elevation (1321N1 astrocytoma cells; [5]): ~50 s
- elevation of cytosolic Ca2+ (in words) (1321N1 astrocytoma cells; [5]): sizable elevation of cytosolic Ca^2+
- response to carbachol (200 μM) after treatment (in words) (1321N1 astrocytoma cells; [5]): greatly depressed
- Ca2+ release from internal stores (in words) (1321N1 astrocytoma cells; summary, intact REF-52 fibroblasts and astrocytoma cells): released Ca^2+ from internal stores

Compound: CCCC(=O)Nc1ncnc2c1ncn2[C@@H]1O[C@@H]2COP(=O)(OCOC(C)=O)O[C@H]2[C@H]1OC(=O)CCC (some centres unmarked) [Bt2 cAMP/AM, N^6,O^2 '-Dibutyryl Adenosine 3',5'-cyclic Monophosphate Acetoxymethyl Ester]
- separation of the FICRhR subunits in vitro (in words) ([1]; 1 μM): no separation of the subunits
- activation at 10 µM ([1]; 10 μM (printed)): 0%
- time to maximal change in fluorescence ratio ([2]; 10 μM (highest dose), added extracellularly, room temperature): ≤ 15 min
- activation at 1 µM ([2]; REF52, 1 μM (intermediate dose), read-out: plateau of fluorescence ratio change (% of the maximal change)): > 50%
- onset of separation of regulatory and catalytic subunit of FICRhR after addition ([2]; extracellular addition): roughly 2 min
- pigment dispersion (in words) ([3]; 100 μM, extracellular): essentially complete dispersal
- reversibility of dispersion (in words) ([3]; 100 μM): easily reversed
- onset of dispersion relative to 100 μM (in words) ([3]; 1 mM): slightly faster onset of action
- reversibility of dispersion (in words) ([3]; 1 mM): could not be readily reversed
- minimal effective concentration ([3]; Pterophyllum scalare, Melanophore, read-out: concentration at which dispersion was just detectable): 1 µM
- EC50 ([3]; Pterophyllum scalare, Melanophore, read-out: concentration for half-maximal dispersion): ~10 µM
- increase in potency by AM ester group (vs Bt2 cAMP) ([3]; melanophore dispersion): more than 1000
- time to maximum ISC (T84 cells; 3 μM, serosal bathing solution): 20 min
- increase in potency by acetoxymethyl group (vs Bt2 cAMP) (T84 cells; Cl- secretion): 200 fold
- EC50 (T84 cells): 2 µM
- kinetics of activation, ester vs Bt2 cAMP (in words) (T84 cells; T84 cells): essentially indistinguishable kinetics of activation
- ISC response at other concentrations (in words) (T84 cells; relative to 3 μM): Higher concentrations of the derivative caused faster but not significantly greater responses, whereas lower concentrations reached lower maximum ISC values

Compound: D-myo-inositol-1,4,5-triphosphate butyryloxymethyl ester [IP3 /BM]
- potency relative to propionyloxymethyl ester (in words) (1321N1 astrocytoma cells; 2 μM, FIG. 9): somewhat more potent
- rate of effects relative to propionyloxymethyl ester (in words) (1321N1 astrocytoma cells; 2 μM, FIG. 9): slower to appear and decay

Second part, led by results:

- activation at 10 µM ([1]; 10 μM (printed)): 16%
- potency relative to cAMP ([1]; in vitro, FICRhR): roughly 1/100
- activation at 10 µM ([1]; second Bt2 cAMP column, 10 μM printed): 61%
- concentration required for PKA activation ([2]; extracellular application): 1 mM
- EC50 (T84 cells): 400 µM
Compound: CCCC(=O)Nc1ncnc2c1ncn2[C@@H]1O[C@@H]2COP(=O)(O)O[C@H]2[C@H]1OC(=O)CCC [Bt2 cAMP, N^6,O^2 '-dibutyryl cAMP, reference compound]
- delay and time course of PKA activation relative to Bt2 cAMP/AM (in words) ([2]; 1 mM, FIG. 1 Graph B): Much the same delay and overall time course
- pigment dispersion (in words) ([3]; 1 mM): unable to cause any detectable dispersion

- EC50 (T84 cells): 100 µM
Compound: Nc1ncnc2c1nc(Sc1ccc(Cl)cc1)n2[C@@H]1O[C@@H]2COP(=O)(O)O[C@H]2[C@H]1O [Compound 8-pCPT-cAMP, 8-para-chlorophenylthio (cCPT) cAMP, reference compound]

- EC50 (T84 cells): 1500 µM
Compound: Nc1ncnc2c1nc(Br)n2[C@@H]1O[C@@H]2COP(=O)(O)O[C@H]2[C@H]1O [Compound 8-Br-cAMP, 8-bromo-cAMP, reference compound]
